In patent US10513519B2, “Solid forms of (1S,4S)-4-(2-(((3S,4R)-3-fluorotetrahydro-2H-pyran-4-yl)amino)-8-((2,4,6-trichlorophenyl)amino)-9H-purin-9-yl)-1-methylcyclohexane-1-carboxamide and methods of their use” (Signal Pharmaceuticals, LLC, priority 2016, dated 2019):
Like-named read-outs stand apart in the source and are kept apart here.

What was measured:
[1] = tested on: pRSK1 S380 in LOX-IMVI cells; assay: pRSK1 S380 Mesoscale assay in LOX-IMVI; format: cell-based
Procedure: (§1) Cancer cells were seeded at a density of 25,000 cells per well in 96-well tissue culture plates and incubated at 37° C. in a CO2 incubator overnight. After treatment with Compound 1 at 37° C. for 2 h, the cells were lysed with Mesoscale lysis buffer and pRSK S380 levels in each lysate were measured via Mesoscale ELISA technology.

Colo 205 xenograft = assay: Colo 205 subcutaneous colorectal xenograft model; format: in vivo, SCID mice
Procedure: For xenograft model studies human cancer cell lines were injected into SCID (severe combined immunodeficiency) mice. Cancer cell lines were propagated in culture in vitro. Tumor bearing animals were generated by injecting precisely determined numbers of cells into mice. Following inoculation of animals, the tumors were allowed to grow to a certain size prior to randomization. The mice bearing xenograft tumors ranging between pre-determined sizes were pooled together and randomized into various treatment groups. A typical efficacy study design involved administering one or more compounds at various dose levels to tumor-bearing mice. Additionally, reference chemotherapeutic agents (positive control) and negative controls were similarly administered and maintained. Tumor measurements and body weights were taken over the course of the study.
In the first experiment Compound 1 was administered orally, QD for 15 days at 0.2, 1, 5, 10, and 15 mg/kg.

pRSK1 S380 in SW48 cells = assay: pRSK1 S380 Mesoscale assay in SW48; format: cell-based; settings: Homo sapiens; SW48, 2 h treatment, n = 3
Procedure: as §1

HCC cell lines = assay: HCC cell line apoptosis (Caspase 3/7-Glo); format: cell-based; settings: 72 h
Procedure: Prior to testing, cells were grown and expanded in culture flasks to provide sufficient amounts of starting material. Cells were then diluted to the appropriate densities and added directly to the compound-spotted 384-well plates. Cells were allowed to grow for 72 h at 37° C./5% CO2. At the time when compound was added (to), initial cell number was assessed via a viability assay (Cell Titer-Glo) by quantifying the level of luminescence generated by ATP present in viable cells. After 72 h, cell viability of compound-treated cells was assessed via Cell Titer-Glo and luminescence measurement. The apoptotic response to Compound 1 was assessed by quantifying the activities of caspase 3 and caspase 7 (Caspase 3/7-Glo) in treated cells and DMSO control cells.
Proliferation and apoptosis were measured using CellTiter-Glo and Caspase 3/7-Glo. CalX2 values are the lowest concentration at which Compound 1 induces a 2-fold increase of cleaved caspase 3/7 compared to DMSO control. Proliferation and apoptosis data is the average of 3 experiments.

PDX146 xenograft = assay: PDX1994060146 (PDX146) subcutaneous colorectal patient-derived xenograft model; format: in vivo, NSG mice
Procedure: A time to progression (TTP) study was performed to determine the effect of longer treatment duration on tumor growth.
In the first experiment Compound 1 was administered orally, QD at 1, 5, and 15 mg/kg or 5 and 15 mg/kg BID for 22 days.
In the TTP study, Compound 1 was administered orally, 1, 5, and 15 mg/kg BID for 49-77 days. Compound 1 treatment groups were dosed throughout the duration of the study until the group mean reached the predetermined endpoint of approximately 1200 mm^3 or study termination. Tumor growth delay (TGD) was calculated as the time between the termination of the vehicle control group (on day 43) and the Compound 1 treatment groups. The TGD was 8, 12 and >37 days for the 1, 5 and 15 mg/kg treatment groups, respectively.

Hep3B (HCC) cells = assay: Long term colony assay, Hep3B; format: cell-based; settings: up to 8 weeks
Procedure: Compound 1 was assessed for its ability to inhibit the colony formation of cancer cells via a long-term colony forming assay. Cells and compounds were added to 96-well plates and were monitored for up to 8 weeks for the formation of colonies. Compound and media were replenished every 1 week throughout the course of the assay. Colony formation was detected via imaging at 4× on the IncuCyte ZOOM System. […] (FIGS. 210A-210D).

[2] = tested on: IL-2 and IFNγ production by PBMC-derived T cells; assay: Co-culture of compound-treated KARPAS-299 cells with SEB-stimulated PBMC: IL-2 and IFNγ; format: cell-based, human; settings: SEB 20 ng/ml, treated KARPAS-299 cells co-cultured with PBMC
Procedure: To determine if Compound 1 down-regulation of PD-L1 enhances T cell activation, compound-treated KARPAS-299 cancer cells were co-cultured with PBMC-derived T cells stimulated with low concentrations of super antigen (SEB). KARPAS-299 cells were treated with DMSO (D) or Compound 1 at indicated concentrations for 48 h. PBMC from healthy donors were treated with or without 20 ng/ml SEB for 48 h. After wash with PBS, the PBMCs were incubated with the cancer cells for 24 h and the supernatants were collected to measure IL-2 and IFNγ using Mesoscale assays.

[3] = tested on: BRAF mutant and beta-catenin mutant or active cancer cell lines; assay: Anti-proliferative and apoptotic activity in BRAF mutant and beta-catenin mutant or active cancer cell lines; format: cell-based; settings: for IC50: read-out: Proliferation IC50
Procedure: Anti-proliferative and apoptotic activity in BRAF mutant and beta-catenin mutant or active cancer cell lines. The mutation status of BRAF, CTNNB1, KRAS, and EGFR in five cell lines evaluated was based on public data (COSMIC and CCLE) and confirmed internally. β-catenin status was evaluated using TOP Flash reporter system by transient transfection. A cell line was defined as β-catenin active if a ratio of Top Flash reporter over Fop Flash reporter is greater than 2. N/A: Not available. Transfection efficiency in Colo 205 (BRAF V600E) was too low to access its β-catenin activity using this approach. Antiproliferative and apoptotic activity of Compound 1 in the five cell lines were measured as described above.

[4] = AGS, Gastric, CTNNB1 (G43E), KRAS (G12D), β-catenin active

C[C@]1(C(N)=O)CC[C@@H](n2c(Nc3c(Cl)cc(Cl)cc3Cl)nc3cnc(N[C@@H]4CCOC[C@H]4F)nc32)CC1 [Compound 1, cis-4-[2-{[(3S,4R)-3-fluorooxan-4-yl]amino}-8-(2,4,6-trichloroanilino)-9H-purin-9-yl]-1-methylcyclohexane-1-carboxamide]
pRSK1 inhibition ([1]; 2 h): potently inhibited pRSK1
IC50 ([1]; Homo sapiens, 2 h treatment, n = 3): 38 nM
antitumor activity (Colo 205 xenograft; orally, QD for 15 days at 0.2, 1, 5, 10, and 15 mg/kg): Dose-dependent antitumor activity
antitumor activity (Colo 205 xenograft; scheduling study (BID dosing)): Dose-dependent antitumor activity
IC50 (pRSK1 S380 in SW48 cells): 21 nM
apoptosis in HCC lines (HCC cell lines): induces apoptosis
antitumor activity of 15 mg/kg BID compared to 15 mg/kg QD (PDX146 xenograft; 22 days): appeared to increase the antitumor activity
antitumor activity (PDX146 xenograft; orally, QD at 1, 5, and 15 mg/kg or 5 and 15 mg/kg BID for 22 days): Dose-dependent antitumor activity
inhibition of colony formation vs trametinib and GDC0994 (Hep3B (HCC) cells): greater levels of inhibition than seen with treatment with MEK inhibitors or ERK inhibitors
IL-2 and IFNγ production [2]: increased levels of both IL-2 and IFNγ production
proliferation and apoptosis in BRAF mutant and beta-catenin mutant or active cancer cell lines [3]: potently inhibits proliferation and induces apoptosis
Apoptosis induction CalX2 [3, 4]: 0.004 ± 0.002 µM
IC50 [3, 4]: 28 nM
IC50 ([3]; Homo sapiens, Colo 205, CRC, BRAF (V600E)): 36 nM
IC50 ([3]; Homo sapiens, Hep3B, HCC, β-catenin active): 14 nM
IC50 ([3]; Homo sapiens, LOX-IMVI, Melanoma, BRAF (V600E), β-catenin inactive): 25 nM
IC50 ([3]; Homo sapiens, SW48, CRC, CTNNB1 (S33Y), EGFR (G179S), β-catenin active): 9 nM
